Measurements published in patent US20050233973A1, “Tri-peptides for antidepressant applications” (priority 1997, published 2005).
Where two headings read alike, the source gives them in different places. Values belong to the compound of their own block, whether it stands above or below them. Non-standard residues stand in square brackets, D forms with d. Residues, ends and D or L forms follow the SMILES beside them. pGlu = O=C1CC[C@@H](C(=O)O)N1

How the values were obtained:
[1] = test system: Porsolt forced swim animal model of depression; assay: Porsolt swim test; format: in vivo, rats
[2] = Serum T3 and T4 levels in Porsolt test animals; format: in vivo, rats; conditions: for T3 level: 0.5 mg/kg (sc); for effect upon T3 or T4 levels: at the dosage used
Protocol: A Porsolt swim test with rats was used to examine the antidepressant effects of peptides where R^2=Glu or R^2=Phe, as set forth in Lloyd, R. L. et al., Pharamcology, Biochemistry and Behavior, 70:15-22 (2001), incorporated herein by reference. […] No effect of the blocking variable or interaction of the blocking variable with treatment was found.
Using the animal models of Example 11, T3 (triiodothyronine) and T4 (thyroxine) levels were tested. Serum T3 was determined by […], using fluorescence polarization of a fixed concentration of a fluorescent analog of T3 as provided in the Abbott IMX System. T4 was also determined by radioimmunoassay. With EEP, no changes in T3 were observed. […] With ELP (where R^2 is Leu) and EFP there was an increase in T3, but this was not correlated to swim scores, with ELP not producing a behavioral effect, and EFP producing a marginal behavioral effect.

[3] = test system: control HEK293 cells; assay: Intracellular calcium response (fura2), non-transfected control cells; format: cell-based; conditions: Ca2+-free buffer
Protocol: The ability of peptides of the formula pGlu-[…] to stimulate an intracellular calcium response in transfected HEK293 of Example 5 was evaluated, to determine whether the peptides behave as agonists. […] The coverslip was then rinsed and placed in a Sykes-Moore chamber covered with 1 mL Ca^2+ and Mg^2+ free HBSS. Imaging was performed on a Nikon inverted microscope with a DAGE CCD72 camera and […] intensifier system. Cells were alternately excited at 340 and 380 nm and emission was measured at 490 nm; 340/380 ratios were obtained every 1.2 seconds and analyzed using Image-1 software from Universal Imaging Corporation. […] Peak responses from between 33 and 120 individual cells were averaged, and responses to TRH were measured with each set of cells as a standard. Most of the peptides caused a small increase in intracellular Ca^2+ when added to control HEK293 cells bathed in Ca^2+-containing medium, but with the exception of the R^2=Leu peptide, none of them evoked an appreciable Ca^2+ response in Ca^2+-free HBSS, which was used for all experiments.

[4] = biological target: T1, HEK293 cells expressing TRHR-1 (Mus musculus, UniProt P21761); assay: Intracellular calcium response (fura2), TRHR-1 cells; format: cell-based
T1 construct: expressed in transfected cells
T1 sequence (P21761 1-393): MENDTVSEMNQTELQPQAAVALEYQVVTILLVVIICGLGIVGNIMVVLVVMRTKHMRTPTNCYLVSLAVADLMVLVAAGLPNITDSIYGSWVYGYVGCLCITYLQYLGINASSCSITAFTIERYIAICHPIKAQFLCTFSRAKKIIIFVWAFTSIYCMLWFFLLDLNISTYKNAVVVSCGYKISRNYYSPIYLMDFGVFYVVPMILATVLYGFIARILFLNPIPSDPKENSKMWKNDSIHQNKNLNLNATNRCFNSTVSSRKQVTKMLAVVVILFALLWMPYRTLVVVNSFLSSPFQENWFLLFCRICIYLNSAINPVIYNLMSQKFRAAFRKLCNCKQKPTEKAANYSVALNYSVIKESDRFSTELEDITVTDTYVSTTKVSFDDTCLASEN

[5] = biological target: T2, HEK293 cells expressing TRHR-2 (Rattus norvegicus, UniProt A6IZR3); assay: Intracellular calcium response (fura2), TRHR-2 cells; format: cell-based
T2 sequence (A6IZR3 1-352): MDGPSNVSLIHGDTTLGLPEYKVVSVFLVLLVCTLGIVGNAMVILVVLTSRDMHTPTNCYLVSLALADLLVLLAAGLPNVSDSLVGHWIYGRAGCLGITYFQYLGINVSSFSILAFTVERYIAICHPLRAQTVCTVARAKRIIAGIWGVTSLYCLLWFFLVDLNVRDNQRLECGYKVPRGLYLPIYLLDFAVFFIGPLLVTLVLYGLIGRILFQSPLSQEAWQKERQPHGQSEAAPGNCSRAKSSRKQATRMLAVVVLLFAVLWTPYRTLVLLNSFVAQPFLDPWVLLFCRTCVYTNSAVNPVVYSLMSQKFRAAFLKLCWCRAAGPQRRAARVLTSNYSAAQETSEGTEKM

[6] = test system: pentobarbital-anesthetized rats; format: in vivo, male Wistar rats; conditions: for "wet dog" shaking while still anesthetized: rat, in vivo
Protocol: Twenty minutes after loss of the righting reflex, 10 μL of either sterile saline or peptide of this invention (1 or 10 μg/10 μL sterile saline) was administered by intracisternal (IC) injection. The time from IC injection to recovery of the righting reflex, as measured three times within 10 seconds, was recorded.

[7] = test system: 465B12 antibody (raised to TRH)
[8] = test system: CR-V3-B53 antibody (raised to TRH)
[9] = test system: EEP (R^2=Glu) antibody (580B6)
[10] = biological target: T3, TRH receptor-1 (TRHR-1) (Mus musculus, UniProt P21761); assay: [3H]TRH competition binding, HEK293 cells expressing TRHR-1
T3 sequence (P21761 1-393): T1 sequence (P21761 1-393)

[11] = biological target: T4, TRH receptor-2 (TRHR-2) (Rattus norvegicus, UniProt A6IZR3); assay: [3H]TRH competition binding, HEK293 cells expressing TRHR-2
T4 sequence (A6IZR3 1-352): T2 sequence (A6IZR3 1-352)

[12] = Brain tissue analysis of TRH and EEP after peptide injection; format: in vivo, rats; conditions: 0.5 mg/kg (sc)
[13] = biological target: TRH receptor-1 (TRHR-1); assay: competition with 2 nM [^3H]TRH on HEK293 cells expressing TRHR-1
[14] = biological target: TRH receptor-2 (TRHR-2); assay: competition with 2 nM [^3H]TRH on HEK293 cells expressing TRHR-2
[15] = Binding capacity / concentration in brain areas
[16] = 50 micrograms given at bedtime; reduced from 12; cited from earlier work
[17] = tracer 125I-TRH, assay standard = 1.00
[18] = high-dose (0.5 mg/kg sc), three injections
[19] = low-dose (0.05 mg/kg ip), three injections

Compound: CC(C)C[C@H](NC(=O)[C@@H]1CCC(=O)N1)C(=O)N1CCC[C@H]1C(N)=O [R^2 = Leu, pGlu-Leu-Pro-NH2] ([pGlu]-Leu-Pro-NH2)
- antidepressant effect compared to saline (total immobility time) ([1]; dose not stated): statistically meaningful behavioral effects were not observed
- change in T3 ([2]; animals of the Porsolt test): increase
- Ca2+ response [3]: small Ca^2+ transient
- ability to block the Ca2+ response to low concentrations of TRH (antagonism) [4]: no effect was found
- ability to block the Ca2+ response to low concentrations of TRH (antagonism) [5]: no effect was found
- reduction in pentobarbitol-induced sleep time (analeptic effect) ([6]; IC injection of 10 μg): had an analeptic effect
- relative potency for displacement of assay tracer [7, 17]: 0.301
- relative potency for displacement of assay tracer [8, 17]: 0.088
- relative potency for displacement of assay tracer [9, 17]: 5.00
- IC50 [10]: 5.47 µM
- IC50 [11]: 1.95 µM

Compound: NC(=O)[C@@H]1CCCN1C(=O)[C@H](CCC(=O)O)NC(=O)[C@@H]1CCC(=O)N1 [R^2 = Glu, pGlu-Glu-Pro-NH2] ([pGlu]-Glu-Pro-NH2)
- mean immobility time ([1]; 0.05 mg/kg (ip)): 121 s
- mean immobility time ([1]; 0.5 mg/kg (sc)): 58 s
- antidepressant effect compared to saline (total immobility time) [1, 18]: effective
- antidepressant effect compared to saline (total immobility time) [1, 19]: effective
- T3 level ([2]; R^2=Glu experiment, no significant difference to saline): 0.66 ng/mL
- T3 level ([2]; R^2=Phe experiment, significant increase vs controls (P<0.028, one-tailed)): 0.85 ng/mL
- change in T3 ([2]; animals of the Porsolt test): no changes
- effect upon T3 or T4 levels [2]: No effect
- reduction in pentobarbitol-induced sleep time (analeptic effect) ([6]; IC injection of 10 μg): had an analeptic effect
- "wet dog" shaking while still anesthetized [6]: never produced shaking
- changes in TRH or EEP in brain regions (tissue analysis) [12]: failed to find any changes
- relative potency for displacement of assay tracer [7, 17]: 0.02
- relative potency for displacement of assay tracer [8, 17]: 0.0092
- relative potency for displacement of assay tracer [9, 17]: 1.00
- IC50 [10]: > 282 µM
- IC50 [11]: > 282 µM

Compound: [pGlu]-Arg-Pro-NH2
- IC50 [13]: > 100 mg/L
- IC50 [14]: > 100 mg/L

Compound: [pGlu]-Val-Pro-NH2
- IC50 [13]: > 100 mg/L
- IC50 [14]: > 100 mg/L

Compound: NC(=O)[C@@H]1CCCN1C(=O)[C@H](Cc1cnc[nH]1)NC(=O)[C@@H]1CCC(=O)N1 [TRH, pGlu-His-Pro-NH2, reference compound]
- Ca2+ response [3]: no response
- reduction in pentobarbitol-induced sleep time (analeptic effect) ([6]; IC injection of 1 μg): did not result in a significant reduction
- reduction in pentobarbitol-induced sleep time (analeptic effect) ([6]; IC injection of 10 μg): had an analeptic effect
- "wet dog" shaking while still anesthetized [6]: frequently accompanied by “wet dog” shaking
- relative potency for displacement of assay tracer [7, 17]: 1.00
- relative potency for displacement of assay tracer [8, 17]: 1.00
- relative potency for displacement of assay tracer [9, 17]: 2.91
- IC50 [10]: 0.0235 µM
- IC50 [11]: 0.0243 µM

Compound: pGlu-His-Pro-NH2, thyrotropin releasing hormone (TRH) (peptide)
- IC50 [13]: 0.0085 mg/L
- IC50 [14]: 0.0088 mg/L

Compound: [pGlu]-Tyr-Pro-NH2
- IC50 [13]: > 100 mg/L
- IC50 [14]: > 100 mg/L

Compound: NC(=O)CC[C@H](NC(=O)[C@@H]1CCC(=O)N1)C(=O)N1CCC[C@H]1C(N)=O [R^2 = Gln, reference compound] ([pGlu]-Gln-Pro-NH2)
- relative potency for displacement of assay tracer [7]: 0.0225
- relative potency for displacement of assay tracer [8]: 0.0055
- relative potency for displacement of assay tracer [9]: 1.00
- IC50 [10]: 27.7 µM
- IC50 [11]: 21.4 µM

Compound: NC(=O)[C@@H]1CCCN1C(=O)[C@H](CO)NC(=O)[C@@H]1CCC(=O)N1 [Ser, reference compound] ([pGlu]-Ser-Pro-NH2)
- IC50 [10]: 69.5 µM
- IC50 [11]: 39.4 µM

Compound: NC(=O)[C@@H]1CCCN1C(=O)[C@H](Cc1ccccc1)NC(=O)[C@@H]1CCC(=O)N1 [R^2 = Phe, pGlu-Phe-Pro-NH2] ([pGlu]-Phe-Pro-NH2)
- mean immobility time ([1]; 0.5 mg/kg (sc)): 125 s
- antidepressant effect compared to saline (total immobility time) [1, 18]: effective
- change in T3 ([2]; animals of the Porsolt test): increase
- changes in TRH or EEP in brain regions (tissue analysis) [12]: failed to find any changes
- IC50 [11]: 3.36 µM

Compound: CC(C)[C@H](NC(=O)[C@@H]1CCC(=O)N1)C(=O)N1CCC[C@H]1C(N)=O [R^2 = Val, pGlu-Val-Pro-NH2] ([pGlu]-Val-Pro-NH2)
- antidepressant effect compared to saline (total immobility time) ([1]; dose not stated): statistically meaningful behavioral effects were not observed
- effect upon T3 or T4 levels [2]: No effect
- reduction in pentobarbitol-induced sleep time (analeptic effect) ([6]; IC injection of 10 μg): had an analeptic effect
- relative potency for displacement of assay tracer [7, 17]: 0.161
- relative potency for displacement of assay tracer [8, 17]: 0.087
- relative potency for displacement of assay tracer [9, 17]: 9.24
- IC50 [10]: > 308 µM
- IC50 [11]: > 308 µM

Compound: NC(=O)[C@@H]1CCCN1C(=O)[C@H](Cc1ccc(O)cc1)NC(=O)[C@@H]1CCC(=O)N1 [R^2 = Tyr, pGlu-Tyr-Pro-NH2] ([pGlu]-Tyr-Pro-NH2)
- antidepressant effect compared to saline (total immobility time) [1, 19]: effective
- effect upon T3 or T4 levels [2]: No effect
- relative potency for displacement of assay tracer [7, 17]: 9.85
- relative potency for displacement of assay tracer [8, 17]: 3.83
- relative potency for displacement of assay tracer [9, 17]: 5.06
- IC50 [10]: > 257 µM
- IC50 [11]: > 257 µM

Compound: N[C@@H](Cc1cc(I)c(Oc2ccc(O)c(I)c2)c(I)c1)C(=O)O [T3, liothyronine]
- required numbers of ECTs [16]: 7

Compound: [pGlu]-Leu-Pro-NH2
- IC50 [13]: 1.85 mg/L
- IC50 [14]: 0.66 mg/L

Compound: [pGlu]-Gln-Pro-NH2
- IC50 [13]: 9.8 mg/L
- IC50 [14]: 7.57 mg/L

More lines, main results first:

- IC50 [13]: > 100 mg/L
- IC50 [14]: > 100 mg/L
Compound: [pGlu]-Glu-Pro-NH2

- IC50 [10]: > 262 µM
- IC50 [11]: > 262 µM
Compound: N=C(N)NCCC[C@H](NC(=O)[C@@H]1CCC(=O)N1)C(=O)N1CCC[C@H]1C(N)=O [Arg, reference compound] ([pGlu]-Arg-Pro-NH2)

- binding capacity in limbic and motor areas of the brain compared to the other TRH analogs [15]: significant binding capacity
Compound: [pGlu]-Lys-Pro-NH2 [EKP]
- antidepressant effect compared to saline (total immobility time) [1, 19]: effective
- increase in T3 ([2]; animals of the Porsolt test): 48%
- increase in T4 ([2]; animals of the Porsolt test): 57%

- IC50 [13]: 21.7 mg/L
- IC50 [14]: 12.3 mg/L
Compound: [pGlu]-Ser-Pro-NH2

- IC50 [13]: > 100 mg/L
- IC50 [14]: > 100 mg/L
Compound: [pGlu]-Thr-Pro-NH2

- IC50 [10]: > 306 µM
- IC50 [11]: > 306 µM
Compound: C[C@@H](O)[C@H](NC(=O)[C@@H]1CCC(=O)N1)C(=O)N1CCC[C@H]1C(N)=O [Thr, reference compound] ([pGlu]-Thr-Pro-NH2)

- IC50 [13]: 1.58 mg/L
- IC50 [14]: 1.25 mg/L
Compound: [pGlu]-Phe-Pro-NH2
